# Laboratory results published in patent US11857544B2, “Composition or method including (t)ew-7197 for treating or preventing corneal endothelial diseases” (THE DOSHISHA, priority 2017, dated 2024).
# How the values were obtained:
# Caspase 3/7 = Caspase 3/7 activity (Caspase-Glo 3/7 Assay) in TGF-β-stimulated iFECD; format: cell-based, human
# Experimental: were seeded on a 96-well plate at a ratio of 3×10^3 cells per well, and cultured until reaching confluence at 37° C. (5% CO2). DMEM+10% FBS+1% P/S was used as the medium. After 24 hours, the medium was removed. SB431542 (WAKO, 192-16541) and EW-7197 (Selleck Chemicals, 57530) were added so that the final concentration would each be 0.01, 0.1, 1, or 10 μM, and the medium was cultured for 24 hours. DMEM+2% FBS+1% P/S was used as the medium. After 24 hours, the medium was removed. 10 ng/ml of Transforming Growth Factor-132 Human recombinant (WAKO, 200-19911) and SB431542 were added so that the final concentration would be 0.01, 0.1, 1, and 10 μM, and the medium was cultured for 24 hours. DMEM+2% FBS+1% P/S was used as the medium. After 24 hours, the cell morphology was observed under a phase contrast microscope. After observation, Caspase 3/7 activity was measured using Caspase-Glo 3/7 Assay by the following procedures. The medium was discarded so that the amount would be 50 μl per well, and a Caspase Glo 3/7 Assay Reagent (mixture of Caspase-Glo 3/7 Assay Buffer and Caspase-Glo 3/7 Assay Substrate) (Promega, G8091) solution was added at 50 μl/well so that the ratio thereof to the medium would be 1:1. The process was hereinafter conducted without exposure to light. The mixture was mixed thoroughly using a shaker for 2 minutes at about 120 min^-1, and incubated for 40 minutes at room temperature. After the incubation, 80 μl was transferred to an Assay plate (Corning, 3912, Assay plate 96 well, white polystyrene), and absorbance was measured using a GloMax-Multi Detection System (Promega, E7051). A caspase inhibitor, i.e., 10μ MZ-VD-FMK (WAKO, 262-02061) was used as a positive control.
# type I collagen = assay: Area of type I collagen expression by immunostaining, Col8a2 knock-in mice (Example 5); format: in vivo; settings: 0.02% eye drop, 8 weeks
# Experimental: (§1) 5 μL of 0.02% (about 0.5 mM) EW-7197 eye drop or a base agent (7% DMSO containing PBS) was administered as an eye drop to both eyes of 4-month-old alpha 2 collagen 8 gene (Col8a2) knock-in mice 4 times a day for 8 weeks. The corneal endothelial cell density was measured using a specular microscope KS3M (Konan Medical, Inc.) at before eye drops, and 2, 4, 6, and 8 weeks after eye drops. Mice were euthanized by intraperitoneally administering an excessive amount (200 mg/kg body weight or greater) of anesthetic injection Somnopentyl (Kyoritsu Seiyaku Corporation) 8 weeks after injection. After confirming cardiac arrest, both eye balls were harvested. The harvested eye balls were incised to prepare a corneal fragment. Immunostaining of type I collagen and fibronectin was performed as follows. Image-Pro (Nippon Roper K.K.) was used to analyze the area of type I collagen and fibronectin expression.
# (§2) After immobilizing a mouse corneal fragment for 10 minutes at room temperature in 4% paraformaldehyde, 0.5% TritonX-100 was added and allowed to permeate for 5 minutes. 1% bovine serum albumin (BSA) was added and the fragment was incubated for 1 hour at room temperature. The corneal fragment was then immersed in a primary antibody solution and reacted overnight at 4° C. […]
# Col8a2 knock-in mice = assay: Corneal endothelial cell density after eye drops in Col8a2 knock-in mice (Example 6, 12 weeks); format: in vivo; settings: eye drop group (0.02%, 0.1%)
# Experimental: (§3) 5 μL of 0.02% (about 0.5 mM) EW-7197 eye drop, 0.1% (about 2.5 mM) EW-7197 eye drop, or a base agent (DMSO containing phosphate buffer) was administered as an eye drop to both eyes of 4-month-old alpha 2 collagen 8 gene (Col8a2) knock-in mice 4 times a day for 12 weeks. A surfactant was added to the base agent as needed. Those skilled in the art can use an appropriate and suitable surfactant (Kenji Motose (1984). “Tenganzai” [Eye drops] Nanzando; International Pharmaceutical Excipients Council Japan (2016). “Iyakuhin Tenkabutsu Jiten” [Pharmaceutical Excipient Encyclopedia] Yakuji Nippo, Limited). The corneal endothelial cell density was measured using a specular microscope KS3M (Konan Medical, Inc.) at before eye drops, and 3, 6, 9, and 12 weeks after eye drops. Mice were euthanized by intraperitoneally administering an excessive amount (200 mg/kg body weight or greater) of anesthetic injection Somnopentyl (Kyoritsu Seiyaku Corporation) 12 weeks after injection. After confirming cardiac arrest, both eye balls were harvested. The harvested eye balls were incised to prepare a corneal fragment. Immunostaining of fibronectin was performed. The immunostaining method was the following. Image-Pro (Nippon Roper K.K.) was used to analyze the area of fibronectin expression.
# fibronectin [1] = assay: Area of fibronectin expression by immunostaining, Col8a2 knock-in mice (Example 5); format: in vivo; settings: 0.02% eye drop, 8 weeks
# Experimental: as §1, §2
# fibronectin [2] = assay: Area of fibronectin expression by immunostaining, Col8a2 knock-in mice (Example 6); format: in vivo
# Experimental: as §3
# as §2, with “C. 1:250 diluent of fibronectin polyclonal antibody (abcam) was used as the primary antibody. Next, the corneal fragment was immersed in a mixture of a secondary antibody solution and DAPI solution (Dojindo Laboratories) and reacted for 1 hour at room temperature away from light. 1:2000 diluent of Alexa Fluor® 488-labeled goat anti-rabbit IgG (Life Technologies) was used as the secondary antibody. 1:1000 diluent of DAPI solution was used.” for “C.”
smiles,measurement,setting,value
"Cc1cccc(-c2[nH]c(CNc3ccccc3F)nc2-c2ccc3ncnn3c2)n1 [EW-7197, N-((4-([1,2,4]triazolo[1,5-a]pyridin-6-yl)-5-(6-methylpyridin-2-yl)-1H-imidazol-2-yl)methyl)-2-fluoroaniline]",activity of Caspase 3/7,Caspase 3/7; at 0.01 μM,inhibited significantly
same,Caspase 3/7 inhibitory effect compared to SB431542,Caspase 3/7; at 0.1 μM,higher inhibitory effect
same,area of type I collagen expression compared to the base agent group,type I collagen,decreasing trend
same,corneal endothelial density at the center section of the cornea,Col8a2 knock-in mice; up to week 6,tendency for suppressing a decrease
same,corneal endothelial density at the center section of the cornea vs base agent eye drop group,Col8a2 knock-in mice; week 12,a significant difference in the corneal endothelial density at the center section of the cornea was not observed
same,area of fibronectin expression compared to the base agent group,fibronectin [1],decreasing trend
same,fibronectin expression,fibronectin [2]; 0.004% (0.1 mM) eye drop,tendency of suppressing fibronectin expression
same,fibronectin expression,"fibronectin [2]; 0.02% eye drop, 12 weeks",clear suppression of fibronectin expression
same,fibronectin expression,"fibronectin [2]; 0.1% eye drop, 12 weeks",clear suppression of fibronectin expression
